The target in series [1] is T1, HCV NS3 helicase (Hepatitis C virus genotype 1b, UniProt P26662).
T1 construct: The full-length HCV NS3 protein, with serine protease and NTPase/helicase activities; made in house
In words: FRET-based fluorescence helicase assay (dsRNA unwinding). It is filed as biochemical. The method, then:
A fluorescence helicase assay based on FRET [26, 27], with modifications in the fluorescent dyes, was used to examine NS3 helicase inhibition by different compounds. […] The concentration of the capture strand was optimized to 400 nM based on the Z′ value; the Z′ value validates assay conditions as having reliability and reproducibility when its value is close to 1.
The FRET-based fluorescence helicase assay was performed as described previously, with modifications in the fluorescent dyes used. The dsRNA substrate was prepared by annealing the 5′ Alexa Fluor 700-labeled fluorescence strand to the 3′ BHQ3-labeled quencher strand in a 1:2 molar ratio. The dsRNA substrate contained the 3′-overhang that is necessary for the NS3 helicase to bind to it prior to duplex unwinding. The capture strand had sequence complementary to the quencher strand and prevented the unwound duplexes from reannealing. All the nucleic acid strands had the same nucleic acid sequences as described previously and were purchased from Japan Bio Services (Saitama, Japan). The reaction mixture contained 25 mM MOPS-NaOH (pH 6.5), 3 mM MgCl2, 2 mM dithiothreitol, 4 U RNasin (Promega, Madison, WI, USA), 50 nM dsRNA substrate, 400 nM capture strand, 5 mM ATP, a serial dilution of test compounds in DMSO vehicle, and 240 nM NS3 helicase in a total reaction volume of 20 µL. The full-length HCV NS3 protein, with serine protease and NTPase/helicase activities, was expressed and purified as described previously.
The reaction was started by the addition of HCV NS3 helicase and was performed at 37 °C for 30 min in a SpectraMax Gemini XS microplate reader (Molecular Devices, Sunnyvale, CA, USA). The fluorescence intensity was recorded every 20 s for 30 min. Helicase activity was calculated as the initial reaction velocity relative to that of the control (in the absence of a test compound but presence of DMSO vehicle). The IC50 was calculated using KaleidaGraph (Synergy Software, Reading, PA, USA) by fitting plots of % activity vs. [I] using Equation (1) unless otherwise stated: (1) % Activity= 100/1+([I]/IC50)^h where h is the Hill coefficient, and [I] is the inhibitor concentration.

The target in the next series is NS3 helicase. The conditions noted are these: read-out: IC50 for NS3 helicase inhibition, cited from earlier work.
The target of series [2] is T1, HCV NS3 helicase. In words: Gel-based helicase assay. It is filed as biochemical. To be noted: compared with the fluorescence helicase assay, Figure S2. The method, then:
A gel-based helicase assay was performed as described previously. The dsRNA substrate was prepared by annealing the 5′ Alexa Fluor 488-labeled fluorescence strand to the non-labeled complementary strand in a 1:2 molar ratio. The dsRNA substrate and the capture strand had the same nucleic acid sequences as those used in the FRET-based fluorescence helicase assay, and were purchased from Japan Bio Services. The reaction mixture for HCV NS3 helicase had the same components as those used in the FRET-based fluorescence helicase assay, with increasing concentrations of a test compound in a total reaction volume of 20 µL, except for the fact that the concentration of the capture strand was 100 nM. The reaction was started by the addition of HCV NS3 helicase and performed at 37 °C for 60 min using the GeneAmp PCR System 2700 (Applied Biosystems, Foster City, CA, USA). […] The helicase activity was calculated as the ratio of the signal intensity derived from ssRNA in the sample containing inhibitor to that in the control sample containing DMSO vehicle instead of inhibitor.

Series [3] deals with Huh-7 cell line harboring the subgenomic replicon RNAs of HCV genotype 1b strain N. In words: HCV replicon assay (luciferase). It counts as cell-based, Hepatitis C virus. To be noted: for EC50: Hepatitis C virus, HCV subgenomic replicon, genotype 1b strain N, Huh-7, 72 h, mean ± SD of three replicates, read-out: EC50 (inhibition of HCV replication). The method, then: The Huh-7 cell line harboring the subgenomic replicon RNAs of HCV genotype 1b strain N [51] was seeded at 2 × 10^4 cells per well in a 48-well plate and incubated at 37 °C for 24 h. The cells were treated with hypericin or sennidin A at various concentrations at 37 °C for 72 h, and then lysed in cell culture lysis reagent (Promega). A luciferase assay system (Promega) was used to determine the luciferase activity, and the luminescence was measured using a Luminescencer-JNR AB-2100 (ATTO, Tokyo, Japan), corresponding to the expression level of the HCV replicon. The anti-HCV activity of hypericin or sennidin A was calculated as the ratio of the intensity of the luminescence in the sample containing inhibitor to that in the control sample containing DMSO vehicle instead of inhibitor.
On the technique in general: A replicon is a self-replicating genome or part of one, used to study replication in cells.

A short description of another series: Cytotoxicity assay (MTS). It is filed as cell-based. To be noted: human, Huh-7 replicon cells, mean ± SD of three replicates, read-out: CC50 (reduction in cell viability). The method, then:
The Huh-7 cell line harboring the subgenomic replicon RNAs of HCV genotype 1b strain N [51] was seeded at 2 × 10^4 cells per well in a 48-well plate and incubated at 37 °C for 24 h. The cells were treated with hypericin or sennidin A at various concentrations at 37 °C for 72 h. The MTS assay was carried out to determine cytotoxicity using a CellTiter 96 aqueous one-solution cell proliferation assay kit (Promega) according to the manufacturer’s instructions. The cytotoxicity of hypericin or sennidin A was calculated as the ratio of the […] in the sample containing inhibitor to that in the control sample containing DMSO vehicle instead of inhibitor.

A further series has as its target T2, NS3 ATPase activity (Hepatitis C virus genotype 1b, UniProt P26662).
T2 construct: The full-length HCV NS3 protein, with serine protease and NTPase/helicase activities; made in house
In words: ATPase assay ([γ-32P]ATP hydrolysis, thin-layer chromatography). The conditions noted are these: autoradiography, poly(U) RNA, 300 nM NS3, 0–100 µM tested. It counts as biochemical. The procedure:
As the unwinding ability of NS3 helicase is dependent on ATP hydrolysis, the amount of inorganic phosphate (Pi) released from radioisotope-labeled ATP ([γ-^32P]ATP) was measured to determine the effects of hypericin on the ATPase activity of NS3 (Figure 3). The released ^32Pi was separated by thin-layer chromatography and visualized using autoradiography. The density of the upper spots corresponding to Pi, which represents ATPase activity, decreased dose-dependently, particularly in the concentration range of 1–5 µM hypericin. […] It is thus likely that hypericin inhibits NS3 helicase via the inhibition of ATPase activity.
NS3 ATPase activity was determined directly by monitoring [γ-^32P]ATP hydrolysis by thin-layer chromatography, as described previously. The reaction mixture contained 25 mM MOPS-NaOH (pH 7.0), 1 mM dithiothreitol, 5 mM MgCl2, 5 mM CaCl2, 1 mM [γ-^32P]ATP (Muromachi Yakuhin, Tokyo, Japan), 300 nM NS3, 0.1 μg/μL poly(U) ssRNA (Sigma-Aldrich), and increasing concentrations of hypericin in a total reaction volume of 10 μL. The reaction was conducted at 37 °C for 10 min, and stopped by the addition of 10 mM EDTA. […] The cellulose sheet was dried, and the released [γ-^32P]phosphoric acid was visualized using an Image Reader FLA-9000 (Fuji film, Tokyo, Japan).

For the next series, the target named is T3, NS3 RNA-binding activity (Hepatitis C virus genotype 1b, UniProt P26662).
T3 construct: The full-length HCV NS3 protein, with serine protease and NTPase/helicase activities; made in house
T3 sequence (P26662 1027-1657): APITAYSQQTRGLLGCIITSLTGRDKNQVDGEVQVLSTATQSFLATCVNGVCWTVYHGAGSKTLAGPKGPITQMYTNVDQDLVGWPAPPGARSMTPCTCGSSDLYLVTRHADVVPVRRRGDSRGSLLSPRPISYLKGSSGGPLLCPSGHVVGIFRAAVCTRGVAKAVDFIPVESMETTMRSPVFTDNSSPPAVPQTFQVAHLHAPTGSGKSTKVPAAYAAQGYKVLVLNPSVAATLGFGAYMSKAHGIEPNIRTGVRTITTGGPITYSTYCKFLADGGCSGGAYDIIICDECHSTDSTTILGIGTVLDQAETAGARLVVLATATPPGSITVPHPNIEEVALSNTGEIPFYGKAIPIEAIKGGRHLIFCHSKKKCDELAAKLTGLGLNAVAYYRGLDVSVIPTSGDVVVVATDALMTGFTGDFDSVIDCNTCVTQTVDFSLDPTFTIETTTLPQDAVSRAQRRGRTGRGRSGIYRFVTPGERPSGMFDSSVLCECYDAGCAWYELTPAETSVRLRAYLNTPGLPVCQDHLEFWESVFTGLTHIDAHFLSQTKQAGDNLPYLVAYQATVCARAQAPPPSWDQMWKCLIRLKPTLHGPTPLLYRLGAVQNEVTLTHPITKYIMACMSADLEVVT
In words: RNA-binding assay (gel mobility-shift). To be noted: 32P-labeled ssRNA, 300 nM NS3, 0–100 µM tested. The procedure: As RNA binding is required for NS3 helicase activity, the effect of hypericin on NS3 RNA-binding activity was examined by gel mobility-shift assay (Figure 4). As a control, the non-specific binding of ssRNA to bovine serum albumin (BSA) was assessed (lane 2). The density of the upper bands corresponding to the NS3–ssRNA complex, which represents NS3 RNA-binding activity, decreased dose-dependently in the presence of hypericin, particularly in the concentration range of 3–10 µM.
NS3 RNA-binding activity was determined by gel mobility-shift assay, as described previously. The ssRNA (5′-[…]-3′) synthesized by Gene Design (Osaka, Japan) was labeled at the 5′-end with [γ-^32P]ATP (Muromachi Yakuhin) using T4 polynucleotide kinase (Toyobo, Osaka, Japan) at 37 °C for 60 min, and purified using the phenol-chloroform extraction method. The reaction mixture contained 30 mM Tris-HCl (pH 7.5), 100 mM NaCl, 2 mM MgCl2, 1 mM dithiothreitol, 20 U RNasin Plus (Promega), 300 nM NS3, 0.5 nM ^32P-labeled ssRNA, and increasing concentrations of hypericin in a total reaction volume of 20 μL. The reaction was performed at room temperature for 15 min. […] The labeled RNA bands were visualized using an Image Reader FLA-9000 (Fujifilm, Tokyo, Japan).

Setting [4] is: fluorescence helicase assay, dsRNA substrate, 240 nM NS3, 5 mM ATP, 37 °C, read-out: IC50 for NS3 helicase inhibition.

The structures appear in SMILES notation. Where a name gives a salt, the structure may show the parent alone. Read-outs that look alike come from different tables or passages of the source.

The source of these data is paper PMC4581254, “Identification of Hydroxyanthraquinones as Novel Inhibitors of Hepatitis C Virus NS3 Helicase” (International Journal of Molecular Sciences, 2015).

For orientation: IC50 means the concentration needed to halve the response being measured. By EC50 is commonly meant the concentration giving half of the maximal effect. In general, CC50 refers to the concentration giving 50% cytotoxicity.

T1 sequence (P26662 1027-1657): as above
T2 sequence (P26662 1027-1657): as above

In the case of `O=C1c2ccccc2C(=O)c2c1cc(O)c(O)c2O` [1,2,3-trihydroxyanthraquinone], the IC50 on HCV NS3 helicase [1] (setting [4]) is 18 µM.

In the case of `O=C1c2ccccc2C(=O)c2c(O)c(O)cc(O)c21` [1,2,4-trihydroxyanthraquinone], at HCV NS3 helicase [1], the IC50 is 11 µM.

In the case of `O=C1c2ccccc2C(=O)c2c1ccc(O)c2O` [1,2-dihydroxyanthraquinone], at HCV NS3 helicase [1], the IC50 was > 200 µM.

On to `O=C1c2ccc(O)c(O)c2C(=O)c2c(O)ccc(O)c21` [1,4,5,6-tetrahydroxyanthraquinone], for which, on HCV NS3 helicase [1] (setting [4]), the IC50 came out at 98 µM.

For `O=C1c2c(O)ccc(O)c2C(=O)c2c(O)ccc(O)c21` [1,4,5,8-tetrahydroxyanthraquinone], the IC50 on HCV NS3 helicase [1] (setting [4]) is 6 µM.

Turning to `O=C1c2ccccc2C(=O)c2c(O)ccc(O)c21` [1,4-dihydroxyanthraquinone], the IC50 on HCV NS3 helicase [1] (setting [4]) was 54 µM.

Take `O=C1c2cccc(O)c2C(=O)c2cccc(O)c21` [1,5-dihydroxyanthraquinone]: the IC50 on HCV NS3 helicase [1] (setting [4]) was > 200 µM.

For `O=C1c2cccc(O)c2C(=O)c2c(O)cccc21` [1,8-dihydroxyanthraquinone], the IC50 at HCV NS3 helicase [1] (setting [4]) was > 200 µM.

`CC(C)CCC[C@@H](C)[C@H]1CC[C@H]2[C@@H]3CC=C4C[C@@H](OS(=O)(=O)O)CC[C@]4(C)[C@H]3CC[C@]12C` [Cholesterol sulfate]: the IC50 at NS3 helicase (positive control of the gel-based helicase assay) is 1.7 µM.

Turning to `Cc1cc(O)c2c(=O)c3c(O)cc(O)c4c5c(O)cc(O)c6c(=O)c7c(O)cc(C)c8c1c2c(c34)c(c78)c65` [Hypericin, hypericin], at HCV NS3 helicase [1], the IC50 was 3 µM. In addition, the “NS3 helicase inhibition in gel-based helicase assay” value on HCV NS3 helicase [2] is on record as “quite similar to that in the fluorescence helicase assay”. Further, the “SI, selectivity index (CC50/EC50)” value in series [3] (CC50/EC50 in Huh-7 replicon cells) amounted to 11.7. In series [3], the EC50 was found to be 3.5 ± 0.2 µM. Moreover, the CC50 at 72 h in “Cytotoxicity assay (MTS)” amounted to 41.1 ± 9.5 µM. In addition, the “Concentration range in which NS3 ATPase activity decreased dose-dependently” value at NS3 ATPase activity was 1 to 5 µM. In addition, the “Concentration range in which NS3 RNA-binding activity decreased dose-dependently” value on NS3 RNA-binding activity lay within 3 to 10 µM.

As for `O=C(O)c1cc(O)c2c(c1)[C@H]([C@@H]1c3cccc(O)c3C(=O)c3c(O)cc(C(=O)O)cc31)c1cccc(O)c1C2=O` [Sennidin A, sennidin A], at HCV NS3 helicase [1] (setting [4]), the IC50 was found to be 0.8 µM. Further, the “NS3 helicase inhibition in gel-based helicase assay” value at HCV NS3 helicase [2] is given as “quite similar to that in the fluorescence helicase assay”. For the same compound, the EC50 in series [3] was > 80 µM. Further, in “Cytotoxicity assay (MTS)”, the CC50 at 72 h is > 80 µM.

As to `O=C1c2c(O)ccc(O)c2C(=O)c2c(NCCNCCO)ccc(NCCNCCO)c21` [mitoxantrone], the IC50 on NS3 helicase is 6.7 µM.
